Reference: patent EP0774460A1, “BENZOIC ACID COMPOUND AND USE THEREOF AS MEDICINE” (YOSHITOMI PHARMACEUTICAL INDUSTRIES, LTD., priority 1994, dated 1995)

Key:
[1] = biological target: isolated guinea pig ascending colon (Cavia porcellus, UniProt O70528); experiment: contraction of isolated guinea pig ascending colon; type: cell-based; settings: male Hartley guinea pig ascending colon, Tyrode solution 37°C, relative to methacholine (30 µM) contraction; read-out: Contraction of removed colon (EC50)
Procedure: Experimental Example 3 : contraction of isolated guinea pig ascending colon
About 3 cm long ascending colon segment was taken from male Hartley guinea pig and suspended in 10 ml of a Tyrode solution ventilated with a mixed gas of oxygen (95%) and CO2 (5%) at 37°C with the load of 2 g. The contraction was isotonically measured via isotonic transducer. After an equilibrium period of about 30 min, the test compound was administered non-cumulatively from lower concentrations, and dose-dependent contraction was measured. The test compound was administered at 15 minutes intervals. Then, contraction by the test compound in the presence of a 5-HT4 receptor antagonist, 4-amino-3-chloro-6-methoxybenzoic acid · 2-diethylaminoethyl ester (0.3 µM, hereinafter to be referred to as SDZ 205-557) was determined, and antagonistic effect on the reaction by SDZ 205-557 was confirmed.
The contraction by the test compound was evaluated based on the ratio of reaction relative to mean contraction induced by methacholine (30 µM) administered before and after each determination of dose-dependent contraction. The contraction was probit-converted using the maximum value of dose-response curve as 100, and expressed by EC50 as determined from linear regression and maximum reaction ratio.

5-HT3 receptor = biological target: T1, 5-HT3 receptor (Rattus norvegicus, UniProt P35563); experiment: 5-HT3 receptor binding test; settings: [3H]Granisetron 1.0 nM, crude synapse membrane from rat cerebral cortex, 25°C; for IC50: cells marked * are IC50, read-out: Affinity for receptor 5-HT3 (∗ shows IC50); for Ki: cells without asterisk, read-out: Affinity for receptor (Ki value, nM) 5-HT3
T1 construct: crude synapse membrane sample was prepared from rat cerebral cortex; from tissue; host or cells: rat cerebral cortex, crude synaptic membranes
T1 sequence (P35563 24-483): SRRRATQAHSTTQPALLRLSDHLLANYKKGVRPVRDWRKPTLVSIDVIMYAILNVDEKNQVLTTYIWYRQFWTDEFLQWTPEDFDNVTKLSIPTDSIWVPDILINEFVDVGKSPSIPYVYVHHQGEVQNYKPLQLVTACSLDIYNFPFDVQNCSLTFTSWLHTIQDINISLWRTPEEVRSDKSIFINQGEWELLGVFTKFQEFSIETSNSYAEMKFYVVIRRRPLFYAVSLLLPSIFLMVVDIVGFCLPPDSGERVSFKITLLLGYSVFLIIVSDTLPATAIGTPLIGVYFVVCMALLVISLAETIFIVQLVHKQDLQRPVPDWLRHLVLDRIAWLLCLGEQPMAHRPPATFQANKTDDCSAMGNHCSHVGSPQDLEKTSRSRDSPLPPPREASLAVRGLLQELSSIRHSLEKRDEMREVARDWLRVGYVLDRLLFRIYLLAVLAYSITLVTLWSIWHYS
Procedure: Experimental Example 2 : 5-HT3 receptor binding test
According to the method of Peroutka et al (European Journal of Pharmacology, vol. 148, pp. 297-299), a specific 5-HT3 receptor binding test was run using, as a tracer ligand, endo-1-methyl-N-(9-methyl-9-azabicyclo[3.3.1]non-3-yl)-1H-indazole-3-carboxamide substituted by tritium (hereinafter to be referred to as [3H]Granisetron). Specifically, crude synapse membrane sample was prepared from rat cerebral cortex, suspended in 50 mM HEPES buffer (pH 7.4) and used for testing. The test compound having several different concentrations and [3H]Granisetron (final concentration 1.0 nM) were added to this suspension and allowed to react at 25°C. Thirty minutes later, the reaction mixture was filtered by suction with cell harvester. The filter was washed with 50 mM Tris buffer (pH 7.4), and the radioactivity on the filter was counted using liquid scintillation counter or β-plate. The non-specific binding was determined in the presence of 1 µM Tropisetron. The concentration of the test compound necessary for 50% inhibition (IC50) and Ki value were determined from graph.

5-HT4 receptor = biological target: T2, 5-HT4 receptor (Cavia porcellus, UniProt O70528); experiment: 5-HT4 receptor binding test; design: species or system guinea pig; settings: [3H]GR113808 0.1 nM, crude synapse membrane from guinea pig striatum, 37°C; read-out: Affinity for receptor (Ki value, nM) 5-HT4
T2 construct: crude synapse membrane sample was prepared from guinea pig striatum; from tissue; host or cells: guinea pig striatum, crude synaptic membranes
Procedure: Experimental Example 1 : 5-HT4 receptor binding test
According to the method of C.J. Grossman et al. (British Journal of Pharmacology, vol. 109, pp. 618-624), a specific 5-HT4 receptor binding test was run using, as a tracer ligand, 1-methyl-1H-indole-3-carboxylic acid · 1-(2-methylsulfonylaminoethyl)-piperidin-4-ylmethyl ester substituted by tritium (hereinafter to be referred to as [3H]GR113808). Specifically, crude synapse membrane sample was prepared from guinea pig striatum, suspended in 50 mM HEPES buffer (pH 7.4) and used for testing. The test compound having several different concentrations and [3H]GR113808 (final concentration 0.1 nM) were added to this suspension and allowed to react at 37°C. Thirty minutes later, the reaction mixture was filtered by suction with cell harvester. The filter was washed with 50 mM HEPES buffer, and the radioactivity on the filter was counted by liquid scintillation counter. The non-specific binding was determined in the presence of 1 µM GR113808. The concentration of the test compound necessary for 50% inhibition (IC50) and Ki value were determined from graph.

Sequence of isolated guinea pig ascending colon (O70528 whole entry): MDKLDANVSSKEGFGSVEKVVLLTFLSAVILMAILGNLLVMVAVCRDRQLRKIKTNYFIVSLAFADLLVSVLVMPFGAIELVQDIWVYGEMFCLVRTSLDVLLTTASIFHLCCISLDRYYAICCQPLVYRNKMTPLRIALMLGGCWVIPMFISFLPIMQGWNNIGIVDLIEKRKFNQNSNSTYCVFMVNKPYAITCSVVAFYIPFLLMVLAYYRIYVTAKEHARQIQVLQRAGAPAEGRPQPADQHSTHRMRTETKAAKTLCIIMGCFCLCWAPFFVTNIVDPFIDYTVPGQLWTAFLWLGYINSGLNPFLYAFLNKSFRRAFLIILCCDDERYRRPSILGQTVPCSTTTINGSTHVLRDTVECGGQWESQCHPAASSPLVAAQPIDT
T2 sequence (O70528 whole entry): as above

Row | Compound | EC50 [1] [nM] | IC50 (5-HT3 receptor) [nM] | Ki (5-HT4 receptor) [nM] | Ki (5-HT3 receptor) [nM]
1 | COc1cc(N)c(Cl)cc1C(=O)NCC1CCN(CCCCCN2C(=O)c3ccccc3C2=O)C1 (stereo not drawn) [Example 70, 4-amino-5-chloro-N-(1-(5-(2,3-dihydro-1,3-dioxo-1H-isoindol-2-yl)pentyl)pyrrolidin-3-ylmethyl)-2-methoxybenzamide] | 6.7 | > 1000 | 7.4 | 
2 | COc1cc(N)c(Cl)cc1C(=O)NC[C@H]1CCN(CCCCNC(=O)c2cn(C)c3ccccc23)C1 [Example 85, N-(4-((3R)-3-(4-amino-5-chloro-2-methoxybenzoylaminomethyl)pyrrolidin-1-yl)butyl)-1-methyl-1H-indole-3-carboxamide] | 1.2 |  | 0.44 | 260
3 | COc1cc(N)c(Cl)cc1C(=O)NC[C@H]1CCN(CCCCCNC(=O)c2cn(C)c3ccccc23)C1 [Example 88, N-(5-((3R)-3-(4-amino-5-chloro-2-methoxybenzoylaminomethyl)pyrrolidin-1-yl)pentyl)-1-methyl-1H-indole-3-carboxamide] | 1.4 |  | 1.2 | 350
4 | COc1cc(N)c(Cl)cc1C(=O)NCC1CCN(CCCCCNC(=O)c2cn(C)c3ccccc23)CC1 [Example 90, N-(5-(4-(4-amino-5-chloro-2-methoxybenzoylaminomethyl)piperidin-1-yl)pentyl)-1-methyl-1H-indole-3-carboxamide] | 0.9 | > 1000 | 0.43 | 
5 | COc1cc(N)c(Cl)cc1C(=O)NCC1CCN(CCCCNC(=O)c2cn(C)c3ccccc23)CC1 [Example 98, N-(4-(4-(4-amino-5-chloro-2-methoxybenzoylaminomethyl)piperidin-1-yl)butyl)-1-methyl-1H-indole-3-carboxamide] | 4 | > 1000 | 1.6 | 
